{"source": "ChEMBL document CHEMBL2073744", "about": "“The multidrug-resistant phenotype associated with overexpression of the new ABC half-transporter, MXR (ABCG2)” (J Cell Sci, 2000)", "key": {"[1]": {"molecular_target": "T1, Broad substrate specificity ATP-binding cassette transporter ABCG2 (Homo sapiens, UniProt Q9UNQ0)", "T1 sequence (Q9UNQ0 whole entry)": "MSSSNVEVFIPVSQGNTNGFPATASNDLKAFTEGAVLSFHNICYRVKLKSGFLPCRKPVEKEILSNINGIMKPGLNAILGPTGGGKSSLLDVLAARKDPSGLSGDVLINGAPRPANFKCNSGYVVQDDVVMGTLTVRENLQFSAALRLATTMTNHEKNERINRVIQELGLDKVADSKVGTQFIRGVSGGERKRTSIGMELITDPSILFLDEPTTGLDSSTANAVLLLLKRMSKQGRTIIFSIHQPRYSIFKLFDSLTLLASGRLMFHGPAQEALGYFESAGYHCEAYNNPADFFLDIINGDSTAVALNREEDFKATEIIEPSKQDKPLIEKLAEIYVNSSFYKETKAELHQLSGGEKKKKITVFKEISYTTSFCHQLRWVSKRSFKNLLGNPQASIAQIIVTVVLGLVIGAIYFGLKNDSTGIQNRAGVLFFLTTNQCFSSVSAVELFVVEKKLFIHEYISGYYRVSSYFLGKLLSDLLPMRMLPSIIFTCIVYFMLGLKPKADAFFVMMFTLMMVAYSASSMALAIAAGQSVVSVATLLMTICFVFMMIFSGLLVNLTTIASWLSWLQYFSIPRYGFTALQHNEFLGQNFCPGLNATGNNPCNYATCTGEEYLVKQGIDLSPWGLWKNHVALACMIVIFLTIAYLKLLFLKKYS", "assay": "TP_TRANSPORTER: intracellular accumulation in S1 and S1-M1-80 cells", "assay_type": "functional, cell-based", "settings": "s1;s1-m1-80"}, "[2]": {"molecular_target": "T1, Broad substrate specificity ATP-binding cassette transporter ABCG2", "assay": "TP_TRANSPORTER: intracellular accumulation in MCF-7 and MCF-7 AdVp3000 cells", "assay_type": "functional, cell-based"}}, "data": [{"smiles": "O=C1c2c(O)ccc(O)c2C(=O)c2c(NCCNCCO)ccc(NCCNCCO)c21", "note": "[MITOXANTRONE]", "values": [{"measurement": "Activity", "setting": "[1]", "result": "substrate [+]"}, {"measurement": "Activity", "setting": "[2]", "result": "substrate [+]"}]}]}
